Data taken from ChEMBL document CHEMBL1131627, “Noncalcemic, antiproliferative, transcriptionally active, 24-fluorinated hybrid analogues of the hormone 1alpha, 25-dihydroxyvitamin D3. Synthesis and preliminary biological evaluation” (J Med Chem, 1998).

target: T1, Vitamin D3 receptor (Rattus norvegicus) (UniProt P13053); test: Vitamin D receptor mediated transcriptional activity in rat osteosarcoma ROS 17/2.8 cells
T1 sequence (whole entry): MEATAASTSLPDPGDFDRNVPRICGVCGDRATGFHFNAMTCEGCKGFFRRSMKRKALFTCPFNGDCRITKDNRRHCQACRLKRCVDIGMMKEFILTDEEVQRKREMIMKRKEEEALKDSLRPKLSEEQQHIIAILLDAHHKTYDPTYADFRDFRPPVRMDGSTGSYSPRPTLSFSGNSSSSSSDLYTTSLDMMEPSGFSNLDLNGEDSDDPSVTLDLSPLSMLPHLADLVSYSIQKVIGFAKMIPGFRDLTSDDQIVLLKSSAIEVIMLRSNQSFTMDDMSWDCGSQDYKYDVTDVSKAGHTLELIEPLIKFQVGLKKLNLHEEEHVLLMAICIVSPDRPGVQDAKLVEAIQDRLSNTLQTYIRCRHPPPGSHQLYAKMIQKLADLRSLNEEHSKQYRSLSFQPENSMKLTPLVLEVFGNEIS

Going from `C=C1/C(=C\C=C2/CCC[C@]3(C)C([C@H](C)CCC(F)(F)C(O)(CC)CC)=CC[C@@H]23)C[C@H](O)C[C@H]1CO` to `C=C1/C(=C\C=C2/CCC[C@]3(C)C([C@H](C)CCC(F)(F)C(C)(C)O)=CC[C@@H]23)C[C@H](O)C[C@H]1CO`, the ED50 rises from 0.05 nM to 0.2 nM (4-fold).

Compound `C=C1/C(=C\C=C2/CCC[C@]3(C)[C@@H]([C@H](C)CCCC(C)(C)O)CC[C@@H]23)C[C@@H](O)C[C@@H]1O` has an ED50 of 0.3 nM.
